The record followed here is patent US20120157472A1, “METHOD FOR TREATING COLORECTAL CANCER” (BOEHRINGER INGELHEIM INTERNATIONAL GMBH, priority 2009, published 2012).

Entries after “also recorded” stand apart in the source; their conditions may differ.

Data set [1] deals with angiogenesis. The experiment in a line: Angiogenesis inhibition by CD31 staining. The format is in vivo.
The test system of data set [2] is HT-29 colorectal xenografts. As to the kind of experiment: Tumor growth inhibition in mice with HT-29 colorectal xenografts. The format is in vivo. The settings on record: single agent, daily 10 mg/kg p.o., HT-29 xenografts, sub-optimal dose. The procedure:
(§1) A panel of 14 well-characterized human colorectal cancer cell lines were used to characterize the in vitro effects of BIBF 1120 (B1), BIBW 2992 (B2) and their combinations. The antitumor effects of the 2 drugs were evaluated in mice with HT-29 colorectal xenografts.
The tumor growth inhibitory activities of B1 and B2 were determined for HT-29 xenografts after daily drug administration (10 mg/kg p.o.) or, for control animals, by oral administration of the solvent. […] Since the studies were designed to detect additive or synergistic interactions between the two drugs in subsequent experiments, only sub-optimal doses were used in these studies. Each group represents at least seven mice.
The tumor growth inhibitory activities of B1 and B2 were determined for HT-29 xenografts after daily drug administration (10 mg/kg p.o.) or, for control animals, by oral administration of the solvent.

Data set [3] relates to human colorectal cancer cell lines. The experiment in a line: In vitro effects on human colorectal cancer cell lines. The following applies: for cytotoxic activity: conclusion, single agent; for growth inhibition / cell cycle effect: exposure of colorectal cancer cells to single agent. In kind it is cell-based. The procedure:
as §1

As to `COC(=O)c1ccc2c(c1)NC(=O)/C2=C(\Nc1ccc(N(C)C(=O)CN2CCN(C)CC2)cc1)c1ccccc1` [B1, 3-Z-[1-(4-(N-((4-methyl-piperazin-1-yl)-methylcarbonyl)-N-methyl-amino)-anilino)-1-phenyl-methylene]-6-methoxycarbonyl-2-indolinone], in data set [1], the inhibition of angiogenesis result is given as “inhibited angiogenesis; also recorded: antiangiogenic activity”. Further, in data set [2], the “tumor growth inhibitory activity (tumor volume over treatment time)” value is “exhibit growth inhibitor activity”. Besides, in data set [3], the cytotoxic activity result is “cytotoxic” and the “growth inhibition / cell cycle effect” value was “growth inhibition linked to extensive G1 arrest”.
For `CN(C)C/C=C/C(=O)Nc1cc2c(Nc3ccc(F)c(Cl)c3)ncnc2cc1O[C@H]1CCOC1` [B2, 4-[(3-chloro-4-fluorophenyl)amino]-6-{[4-(N,N-dimethylamino)-1-oxo-2-buten-1-yl]amino}-7-((S)-tetrahydrofuran-3-yloxy)-quinazoline], the inhibition of angiogenesis entry in data set [1] is “inhibited angiogenesis; also recorded: antiangiogenic activity”. For the same molecule, in data set [2], the “tumor growth inhibitory activity (tumor volume over treatment time)” value is listed as “exhibit growth inhibitor activity”. In data set [3], the cytotoxic activity result is reported as “cytotoxic” and the “growth inhibition / cell cycle effect” value was “growth inhibition linked to extensive G1 arrest”.
